According to patent publication US20250381165A1, “Method of Use for Benzofuran Compounds” (Tampa Bay Research Institute, Inc., priority 2024, published 2025):

Experiments:
[1] = test system: MHC class I H-2Kb on DC2.4; experiment: MHC class I recovery after acid stripping of DC2.4; assay type: cell-based, murine
Experimental: To determine if BzFβ affects synthesis or cycling of the MHC class I molecules, the class I molecule/peptide complexes were stripped from the surface of DC2.4 cells using a citric acid buffer, then treated with 25 μg/mL BzFβ, 5 mM of the dipeptide GL, or 3 μg/mL BFA (see Example 4) as a negative control.
An acid wash to strip the cell surface of MHC class I was performed as described with modifications. (Montealegre, et al., Dissociation of β2-microglobulin determines the surface quality control of major histocompatibility complex class I molecules. FASEB. 2015 July; 29(7):2780-8). DC2.4 were incubated overnight at 37° C. at 1×10^5. Cells were washed for 2 min in acidic buffer [(pH 2.5) 465 mM Citric acid, 35 mM sodium citrate, in PBS with 1% v/v FBS] or neutral buffer [(pH 7.4) PBS with 1% v/v FBS]. Afterwards the pH was neutralized by the addition of cDMEM. The cells were washed with PBS and treated with BzFβ or GL in cDMEM for various times to allow for MHC class I recovery at 37° C. Cells were washed and stained with an H-2Kb-specific antibody (Invitrogen, cat. no. 12-5958-82) and analyzed by flow cytometry as described previously
MHC I recovery on the cell surface at various time points was detected by flow cytometry using the PE-labeled MHC class I H-2Kb specific antibody (AF6-88.5.5.3). […] At 6 hours >60% of the MHC class I molecules recovered, seen in FIG. 14.

[2] = test system: MHC class I H-2Kb on DC2.4; experiment: Surface MHC class I H-2Kb on DC2.4 (AF6-88.5.5.3 flow cytometry); assay type: cell-based, murine; details: DC2.4, 25 μg/mL
Experimental: By using an MHC class I H-2K^b specific antibody, a relative comparison of the surface MHC class I was measured before and after BzFβ treatment of DC2.4 and IMG cells. […] Cells were centrifuged and washed using cold FACS buffer (DPBS with 5% FBS, 2 mM EDTA, 0.1% sodium azide). Cells were blocked with Fc block (bioLegend™; cat. no. 101320) for 10 min to 15 min to inhibit non-specific binding, followed by staining with fluorophore-conjugated antibodies; one set of cells was stained with the PE-labeled MHC/SIINFEKL specific antibody (clone 25-D1.16, Invitrogen™, Thermo Fisher Scientific Inc., Waltham, MA; cat. no. 12-5743-82), and the other set was stained with the PE-labeled MHC class I H-2Kb specific antibody (AF6-88.5.5.3,Invitrogen™, Thermo Fisher Scientific Inc., Waltham, MA; cat. no. 12-5958-82) PE-labeled MHC class I H-2kb specific (clone AF6-88.5.5.3; Invitrogen™, Thermo Fisher Scientific Inc., Waltham, MA; cat. no. 12-5958-82), for 30 min at 4° C. After washing, the cells were subjected to flow cytometric analysis with the Attune NxT Flow Cytometer (Invitrogen). Cells were gated based on live single-cell populations and positives were assessed using isotype controls and fluor-minus-one analysis when needed. Data were analyzed using the Attune NxT software or FlowJo versions 10.7 and 10.8.

[3] = test system: CD45+/MHC II/CD11c+ splenocytes; experiment: In vivo SIINFEKL loading, flow cytometry of splenocytes; design: species or system C57BL/6NCrl mice; details: CD45+/MHC II/CD11c+ population
Experimental: Since the oral route of drug delivery is preferred, various doses of BzFβ (1, 2, 4 mg) were administered by oral gavage, immediately following an iv injection of 50 μg SIINFEKL peptide. One-hour post-treatment the blood and spleens from each mouse was collected. Blood samples were processed as described above. Spleens were collected in 4 mL of Hanks Balanced Salt Solution (HBSS) and converted to a single cell suspension using sterile pouches and a Steward Stomacher 80 Biomaster Blender (Fisher Scientific, cat. no. 14-285-27). The resulting cell suspension was pelleted and suspended in 4 mL freshly prepared red blood cell lysis buffer (150 mM NH4Cl, 10 mM NaHCO3, 0.1 mM EDTA in sterile distilled H2O) for 1-3 minutes. The splenocytes were pelleted and filtered through […] EASY strainer filters (USA Scientific, cat. no. 5654-2070). The cell count was determined using the MUSE cell viability kit (MCH600103) and MUSE Cell Analyzer (Luminex Corp, Austin TX).
For peptide loading, splenocytes were prepared to 5×10^5/mL in cRPMI, then 100 μL of cells was added to wells of clear round-bottom 96 well tissue culture plates. […] Cells were gated based on live single-cell populations and positives were assessed using isotype controls and fluor-minus-one analysis when needed. Data were analyzed using the Attune NxT software or FlowJo versions 10.7 and 10.8.

O=C(O)/C=C/c1ccc2occc2c1 [BzFβ, (2E)-3-(1-benzofuran-5-yl)prop-2-enoic acid]
MHC class I recovery after acid stripping ([1]; 25 μg/mL BzFβ or 5 mM GL during recovery, 4-24 h): did not show an increase in MHC class I recovery | B3Z response post acid-stripping ([1]; treated during recovery, data not shown): still able to increase the B3Z response | overall surface expression (MFI) of MHC class I ([2]; 1-4 h): no significant effect | overall surface expression (MFI) of MHC class I ([2]; 24 h): significant increase | cells co-expressing MHCI bound SIINFEKL [3]: significantly more of these cells
